From ChEMBL document CHEMBL5331066, “Structure-guided design of novel HEPT analogs with enhanced potency and safety: From Isopropyl-HEPTs to Cyclopropyl-HEPTs” (Eur J Med Chem, 2023)

Experiments:
[1] = Cytotoxicity against human MT4 cells assessed as reduction in cell viability; type: toxicity, cell-based
[2] = test system: Human immunodeficiency virus 1; test: Antiviral activity against wild type HIV1 IIIB infected in human MT4 cells assessed as protection against virus-induced cytopathicity; type: functional, organism-based; settings: Human immunodeficiency virus 1, IIIB
[3] = test system: Human immunodeficiency virus 1; test: Antiviral activity against HIV1 harboring E138K mutant infected in human MT4 cells assessed as protection against virus-induced cytopathicity; type: functional, organism-based; settings: Human immunodeficiency virus 1, MT4
[4] = test system: Human immunodeficiency virus 1; test: Antiviral activity against HIV1 harboring Y181C mutant infected in human MT4 cells assessed as protection against virus-induced cytopathicity; type: functional, organism-based; settings: Human immunodeficiency virus 1, MT4
[5] = test system: Human immunodeficiency virus 1; test: Antiviral activity against HIV1 harboring Y188L mutant infected in human MT4 cells assessed as protection against virus-induced cytopathicity; type: functional, organism-based; settings: Human immunodeficiency virus 1, MT4
[6] = biological target: Human immunodeficiency virus type 1 reverse transcriptase (Human immunodeficiency virus 1, UniProt Q72547); test: Inhibition of wild type HIV-1 reverse transcriptase assessed as inhibition of biotin deoxyuridine triphosphate incorporation into […]
[7] = Selectivity index, ratio of CC50 for cytotoxicity against human MT4 cells to EC50 for antiviral activity against wild type HIV1 IIIB infected in human MT4 cells; type: toxicity, cell-based; settings: read-out: Ratio CC50/EC50
[8] = test system: Human immunodeficiency virus 1; test: Antiviral activity against HIV1 harboring K103 N mutant infected in human MT4 cells assessed as protection against virus-induced cytopathicity; type: functional, organism-based; settings: Human immunodeficiency virus 1, MT4
[9] = test system: Human immunodeficiency virus 1; test: Antiviral activity against HIV1 harboring L100I mutant infected in human MT4 cells assessed as protection against virus-induced cytopathicity; type: functional, organism-based; settings: Human immunodeficiency virus 1, MT4
[10] = Acute toxicity in mouse assessed as pathological changes in brain at 1000 mg/kg,IG administrated for 2 weeks by hematoxylin-eosin staining based analysis; type: organism-based; settings: in vivo, po, 336 h
Cytochrome P450 3A4 [11] = biological target: T1, Cytochrome P450 3A4 (Homo sapiens, UniProt P08684); test: Inhibition of CYP3A4T (unknown origin); type: ADME
T1 sequence (P08684 whole entry): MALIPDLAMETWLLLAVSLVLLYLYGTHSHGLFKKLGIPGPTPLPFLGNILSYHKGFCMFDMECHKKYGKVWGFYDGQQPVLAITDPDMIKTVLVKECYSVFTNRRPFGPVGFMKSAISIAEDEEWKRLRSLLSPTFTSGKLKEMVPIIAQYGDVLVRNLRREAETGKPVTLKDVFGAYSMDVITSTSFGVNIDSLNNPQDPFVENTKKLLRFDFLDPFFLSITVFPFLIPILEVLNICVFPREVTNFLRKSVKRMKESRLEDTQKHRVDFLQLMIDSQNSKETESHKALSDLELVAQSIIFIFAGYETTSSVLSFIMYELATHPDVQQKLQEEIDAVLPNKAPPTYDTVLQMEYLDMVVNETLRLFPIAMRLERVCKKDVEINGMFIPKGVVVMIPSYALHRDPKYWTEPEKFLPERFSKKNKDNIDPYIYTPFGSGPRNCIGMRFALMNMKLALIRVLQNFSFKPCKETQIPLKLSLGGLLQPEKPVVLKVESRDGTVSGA

[12] = Half life in Sprague-Dawley rat at 1 mg/kg,iv; type: ADME, organism-based; settings: in vivo
[13] = AUC (0-t) in Sprague-Dawley rat at 1 mg/kg,iv; type: ADME, organism-based; parameters: dose 1 mg/kg, route iv; settings: in vivo
[14] = Clearance in Sprague-Dawley rat at 1 mg/kg,iv; type: ADME, organism-based; settings: in vivo
[15] = Cmax in Sprague-Dawley rat at 1 mg/kg,iv; type: ADME, organism-based; parameters: dose 1 mg/kg, route iv; settings: in vivo
Cytochrome P450 3A4 [16] = biological target: T1, Cytochrome P450 3A4; test: Inhibition of CYP3A4M (unknown origin); type: ADME
[17] = Tmax in Sprague-Dawley rat at 1 mg/kg,iv; type: ADME, organism-based; settings: in vivo
[18] = Acute toxicity in mouse assessed as increase in body weight at 1000 mg/kg,IG administrated for 2 weeks; type: organism-based; settings: in vivo, po, 336 h
[19] = Acute toxicity in mouse assessed as pathological changes in spleen at 1000 mg/kg,IG administrated for 2 weeks by hematoxylin-eosin staining based analysis; type: organism-based; settings: in vivo, po, 336 h
[20] = Cmax in Sprague-Dawley rat at 10 mg/kg,po; type: ADME, organism-based; parameters: dose 10 mg/kg, route po; settings: in vivo
[21] = Apparent volume of distribution in Sprague-Dawley rat at 1 mg/kg,iv; type: ADME, organism-based; settings: in vivo, read-out: Vz
[22] = AUC (0-infinity) in Sprague-Dawley rat at 10 mg/kg,po; type: ADME, organism-based; parameters: dose 10 mg/kg, route po; settings: in vivo
[23] = Acute toxicity in mouse assessed as pathological changes in liver at 1000 mg/kg,IG administrated for 2 weeks by hematoxylin-eosin staining based analysis; type: organism-based; settings: in vivo, po, 336 h
[24] = biological target: Voltage-gated inwardly rectifying potassium channel KCNH2 (Homo sapiens, UniProt Q12809); test: Inhibition of human ERG potassium channel expressed in CHO cells by manual patch clamp method; type: toxicity, cell-based
Sequence of Voltage-gated inwardly rectifying potassium channel KCNH2 (Q12809 whole entry): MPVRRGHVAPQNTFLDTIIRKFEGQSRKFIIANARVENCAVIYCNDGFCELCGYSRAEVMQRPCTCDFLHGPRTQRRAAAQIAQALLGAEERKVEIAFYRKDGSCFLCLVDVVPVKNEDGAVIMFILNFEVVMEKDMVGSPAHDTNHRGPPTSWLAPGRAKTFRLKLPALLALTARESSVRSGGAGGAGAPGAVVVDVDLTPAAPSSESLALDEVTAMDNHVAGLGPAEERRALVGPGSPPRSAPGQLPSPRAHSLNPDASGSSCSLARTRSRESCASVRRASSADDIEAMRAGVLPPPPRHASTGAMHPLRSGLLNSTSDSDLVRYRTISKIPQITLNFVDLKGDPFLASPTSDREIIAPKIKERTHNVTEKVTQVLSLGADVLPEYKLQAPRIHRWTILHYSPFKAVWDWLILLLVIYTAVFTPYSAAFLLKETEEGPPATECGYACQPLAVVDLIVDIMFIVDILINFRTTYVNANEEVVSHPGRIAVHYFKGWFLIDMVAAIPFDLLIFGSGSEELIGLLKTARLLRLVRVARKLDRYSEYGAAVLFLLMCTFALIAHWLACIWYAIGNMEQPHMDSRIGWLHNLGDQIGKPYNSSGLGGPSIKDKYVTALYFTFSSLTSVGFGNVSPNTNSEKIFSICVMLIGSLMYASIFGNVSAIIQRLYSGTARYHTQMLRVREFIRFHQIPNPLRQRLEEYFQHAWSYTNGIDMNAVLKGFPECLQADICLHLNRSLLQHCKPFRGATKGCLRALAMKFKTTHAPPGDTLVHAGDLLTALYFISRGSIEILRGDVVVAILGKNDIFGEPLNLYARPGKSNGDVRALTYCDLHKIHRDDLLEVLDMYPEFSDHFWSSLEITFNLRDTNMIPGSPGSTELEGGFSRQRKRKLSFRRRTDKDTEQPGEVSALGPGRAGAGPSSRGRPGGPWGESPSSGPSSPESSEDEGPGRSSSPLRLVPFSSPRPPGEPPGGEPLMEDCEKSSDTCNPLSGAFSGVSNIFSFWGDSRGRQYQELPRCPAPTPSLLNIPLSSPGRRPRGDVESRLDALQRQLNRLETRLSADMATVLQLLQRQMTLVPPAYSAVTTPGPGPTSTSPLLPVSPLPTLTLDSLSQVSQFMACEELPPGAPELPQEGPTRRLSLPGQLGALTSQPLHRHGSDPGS

[25] = Acute toxicity in mouse assessed as pathological changes in heart at 1000 mg/kg,IG administrated for 2 weeks by hematoxylin-eosin staining based analysis; type: organism-based; settings: in vivo, po, 336 h
Cytochrome P450 2C9 = Cytochrome P450 2C9 (Homo sapiens, UniProt P11712); test: Inhibition of CYP2C9 (unknown origin); type: ADME
Sequence of Cytochrome P450 2C9 (P11712 whole entry): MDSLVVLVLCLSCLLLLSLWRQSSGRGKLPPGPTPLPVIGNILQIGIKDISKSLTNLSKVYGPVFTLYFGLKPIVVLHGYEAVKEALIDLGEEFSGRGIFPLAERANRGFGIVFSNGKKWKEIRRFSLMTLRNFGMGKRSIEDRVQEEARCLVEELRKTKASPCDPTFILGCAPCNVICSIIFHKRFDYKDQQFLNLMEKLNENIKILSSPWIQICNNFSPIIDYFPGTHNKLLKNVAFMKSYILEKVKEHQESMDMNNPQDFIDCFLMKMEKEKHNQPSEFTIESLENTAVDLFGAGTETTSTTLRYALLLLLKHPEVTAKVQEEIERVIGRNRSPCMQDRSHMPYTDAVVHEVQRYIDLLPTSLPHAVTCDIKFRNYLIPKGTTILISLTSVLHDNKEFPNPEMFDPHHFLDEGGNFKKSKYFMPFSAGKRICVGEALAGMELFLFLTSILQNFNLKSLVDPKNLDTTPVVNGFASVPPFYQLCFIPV

Cytochrome P450 2D6 = Cytochrome P450 2D6 (Homo sapiens, UniProt P10635); test: Inhibition of CYP2D6 (unknown origin); type: ADME
Sequence of Cytochrome P450 2D6 (P10635 whole entry): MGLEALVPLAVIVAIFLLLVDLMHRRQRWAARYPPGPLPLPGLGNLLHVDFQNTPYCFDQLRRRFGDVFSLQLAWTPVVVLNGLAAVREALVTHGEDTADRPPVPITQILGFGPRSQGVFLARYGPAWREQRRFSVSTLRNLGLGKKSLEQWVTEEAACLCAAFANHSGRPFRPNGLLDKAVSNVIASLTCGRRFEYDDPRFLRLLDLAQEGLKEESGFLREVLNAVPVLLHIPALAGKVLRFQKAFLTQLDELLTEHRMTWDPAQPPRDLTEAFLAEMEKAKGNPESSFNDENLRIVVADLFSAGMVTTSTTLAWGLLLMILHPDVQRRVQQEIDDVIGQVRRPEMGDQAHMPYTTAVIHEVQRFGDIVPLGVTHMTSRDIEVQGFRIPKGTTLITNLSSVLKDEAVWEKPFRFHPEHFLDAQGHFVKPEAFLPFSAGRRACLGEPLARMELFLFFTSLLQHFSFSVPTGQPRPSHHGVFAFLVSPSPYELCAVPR

[26] = Half life in Sprague-Dawley rat at 10 mg/kg,po; type: ADME, organism-based; settings: in vivo
Cytochrome P450 1A2 = biological target: T2, Cytochrome P450 1A2 (Homo sapiens, UniProt P05177); test: Inhibition of CYP1A2 (unknown origin); type: ADME
T2 sequence (P05177 whole entry): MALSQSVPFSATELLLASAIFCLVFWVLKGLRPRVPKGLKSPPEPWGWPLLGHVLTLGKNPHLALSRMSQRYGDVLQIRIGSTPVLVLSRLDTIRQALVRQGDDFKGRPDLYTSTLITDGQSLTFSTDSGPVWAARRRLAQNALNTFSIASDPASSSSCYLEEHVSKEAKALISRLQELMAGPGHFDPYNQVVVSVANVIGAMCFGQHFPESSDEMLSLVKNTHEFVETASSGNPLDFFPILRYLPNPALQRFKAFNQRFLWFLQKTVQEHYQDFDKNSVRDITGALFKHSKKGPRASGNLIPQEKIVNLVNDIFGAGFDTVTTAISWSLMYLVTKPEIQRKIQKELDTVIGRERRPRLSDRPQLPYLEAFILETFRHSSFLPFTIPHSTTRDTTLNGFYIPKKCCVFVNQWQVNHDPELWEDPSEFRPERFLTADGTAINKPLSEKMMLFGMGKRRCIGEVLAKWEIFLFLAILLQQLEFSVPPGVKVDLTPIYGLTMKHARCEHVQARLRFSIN

[27] = Oral bioavailability in Sprague-Dawley rat at 10 mg/kg; type: ADME, organism-based; settings: in vivo
[28] = Tmax in Sprague-Dawley rat at 10 mg/kg,po; type: ADME, organism-based; settings: in vivo
[29] = Acute toxicity in mouse assessed as death at 1000 mg/kg,IG administrated for 2 weeks; type: organism-based; settings: in vivo, po, 336 h
[30] = Acute toxicity in mouse assessed as behavioral abnormalities at 1000 mg/kg,IG administrated for 2 weeks; type: organism-based; settings: in vivo, po, 336 h
[31] = AUC (0-t) in Sprague-Dawley rat at 10 mg/kg,po; type: ADME, organism-based; parameters: dose 10 mg/kg, route po; settings: in vivo
Cytochrome P450 2C19 = Cytochrome P450 2C19 (Homo sapiens, UniProt P33261); test: Inhibition of CYP2C19 (unknown origin); type: ADME
Sequence of Cytochrome P450 2C19 (P33261 whole entry): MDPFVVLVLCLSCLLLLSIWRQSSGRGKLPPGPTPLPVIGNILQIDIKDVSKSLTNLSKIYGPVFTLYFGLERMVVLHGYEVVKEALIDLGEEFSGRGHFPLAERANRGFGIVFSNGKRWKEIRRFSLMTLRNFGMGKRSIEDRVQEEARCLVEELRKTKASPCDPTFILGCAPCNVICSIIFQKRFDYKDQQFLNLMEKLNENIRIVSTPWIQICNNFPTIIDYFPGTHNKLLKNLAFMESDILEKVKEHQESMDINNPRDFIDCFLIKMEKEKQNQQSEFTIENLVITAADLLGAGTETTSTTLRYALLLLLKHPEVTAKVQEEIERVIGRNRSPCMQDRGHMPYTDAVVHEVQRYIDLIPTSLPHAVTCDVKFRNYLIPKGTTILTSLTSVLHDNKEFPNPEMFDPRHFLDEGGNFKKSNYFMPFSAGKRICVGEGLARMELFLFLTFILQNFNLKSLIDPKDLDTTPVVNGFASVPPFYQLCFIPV

[32] = AUC (0-infinity) in Sprague-Dawley rat at 1 mg/kg,iv; type: ADME, organism-based; parameters: dose 1 mg/kg, route iv; settings: in vivo
[33] = Acute toxicity in mouse assessed as pathological changes in lung at 1000 mg/kg,IG administrated for 2 weeks by hematoxylin-eosin staining based analysis; type: organism-based; settings: in vivo, po, 336 h
[34] = Acute toxicity in mouse assessed as pathological changes in kidney at 1000 mg/kg,IG administrated for 2 weeks by hematoxylin-eosin staining based analysis; type: organism-based; settings: in vivo, po, 336 h

SMILES: Cc1cccc(C)c1Sc1c(C2CC2)c(=O)[nH]c(=O)n1COCc1ccccc1
- CC50 [1]: 30.3 µM
- EC50 [2]: 4.36 µM
- EC50 [3]: > 30.3 µM
- EC50 [4]: > 30.3 µM
- EC50 [5]: > 30.3 µM
- IC50 [6]: 6.12 µM
- selectivity ratio [7]: 7
- EC50 [8]: > 30.3 µM
- EC50 [9]: > 7.42 µM

SMILES: O=c1[nH]c(=O)n(COCc2ccccc2)c(Sc2ccncc2)c1C1CC1
- CC50 [1]: 177 µM
- EC50 [2]: 22.2 µM
- EC50 [3]: 0.76 µM
- EC50 [4]: 17.8 µM
- EC50 [5]: > 167 µM
- IC50 [6]: 0.63 µM
- selectivity ratio [7]: 8
- EC50 [8]: 24 µM
- EC50 [9]: 1.44 µM

SMILES: O=c1[nH]c(=O)n(COCc2ccccc2)c(Sc2cccc(Br)c2)c1C1CC1
- CC50 [1]: 26.5 µM
- EC50 [2]: 0.11 µM
- EC50 [3]: 0.24 µM
- EC50 [4]: 3.09 µM
- EC50 [5]: > 26.5 µM
- IC50 [6]: 0.07 µM
- selectivity ratio [7]: 239
- EC50 [8]: 3.64 µM
- EC50 [9]: 0.37 µM

SMILES: Cc1ccc(C)c(Sc2c(C3CC3)c(=O)[nH]c(=O)n2COCc2ccccc2)c1
- CC50 [1]: 74.8 µM
- EC50 [2]: 0.071 µM
- EC50 [3]: 0.23 µM
- EC50 [4]: 2.01 µM
- EC50 [5]: 19.1 µM
- IC50 [6]: 0.08 µM
- selectivity ratio [7]: 1050
- EC50 [8]: 4.16 µM
- EC50 [9]: 0.19 µM

SMILES: O=c1[nH]c(=O)n(COCc2ccccc2)c(Sc2ccccn2)c1C1CC1
- CC50 [1]: 167 µM
- EC50 [2]: 0.17 µM
- EC50 [3]: 0.25 µM
- EC50 [4]: 3.99 µM
- EC50 [5]: > 49.9 µM
- IC50 [6]: 0.11 µM
- selectivity ratio [7]: 1000
- EC50 [8]: 6.12 µM
- EC50 [9]: 0.39 µM

SMILES: Cc1ccc(Sc2c(C3CC3)c(=O)[nH]c(=O)n2COCc2ccccc2)cc1
- CC50 [1]: 31.8 µM
- EC50 [2]: 2.59 µM
- EC50 [3]: 10.2 µM
- EC50 [4]: 5.22 µM
- EC50 [5]: > 31.8 µM
- IC50 [6]: 3.8 µM
- selectivity ratio [7]: 12
- EC50 [8]: > 31.8 µM
- EC50 [9]: 2.05 µM

SMILES: O=c1[nH]c(=O)n(COCc2ccccc2)c(Sc2cc(F)ccc2F)c1C1CC1
- Activity [10]: Non-Toxic
- IC50 (Cytochrome P450 3A4 [11]): > 50 µM
- CC50 [1]: 39.2 µM
- EC50 [2]: 0.017 µM
- half-life [12]: 30.8 min
- AUC(0-t) [13]: 1100 ng·h/mL
- EC50 [3]: 0.09 µM
- EC50 [4]: 1.85 µM
- clearance [14]: 15.6 mL/min/kg
- EC50 [5]: > 39.2 µM
- Cmax [15]: 2030 ng/mL
- IC50 (Cytochrome P450 3A4 [16]): > 50 µM
- Tmax [17]: 4.98 min
- Activity [18]: Non-Toxic
- Activity [19]: Non-Toxic
- Cmax [20]: 3520 ng/mL
- Vd [21]: 0.698 L/kg
- AUC(0-inf) [22]: 9560 ng·h/mL
- IC50 [6]: 0.03 µM
- Activity [23]: Non-Toxic
- IC50 [24]: > 40 µM
- Activity [25]: Non-Toxic
- IC50 (Cytochrome P450 2C9): 27.6 µM
- IC50 (Cytochrome P450 2D6): > 50 µM
- half-life [26]: 151 min
- selectivity ratio [7]: 2330
- IC50 (Cytochrome P450 1A2): > 50 µM
- bioavailability [27]: 86.7%
- Tmax [28]: 35 min
- Activity [29]: Non-Toxic
- Activity [30]: Non-Toxic
- AUC(0-t) [31]: 8660 ng·h/mL
- EC50 [8]: 2.64 µM
- IC50 (Cytochrome P450 2C19): 30.3 µM
- AUC(0-inf) [32]: 1100 ng·h/mL
- Activity [33]: Non-Toxic
- EC50 [9]: 0.38 µM
- Activity [34]: Non-Toxic

SMILES: COc1ccc2c(c1)[C@]13CCCC[C@@H]1[C@H](C2)N(C)CC3 [DEXTROMETHORPHAN]
- IC50 (Cytochrome P450 2D6): 0.052 µM
